Patent publication US20200038513A1, “MODULATORS OF FAK PROTEOLYSIS AND ASSOCIATED METHODS OF USE” (ARVINAS OPERATIONS, INC., priority 2018, published 2020)

System: MDA-MB-231 cells
Assay: RPPA (reverse phase protein array)
Assay type: cell-based, human
Procedure: RPPA analysis was performed by MD Anderson Cancer Center RPPA core facility.
Examination of the Molecular Signaling Events) and/or Downstream Pathways Responsible for the Migration and Invasion Effects Observed by Exemplary Compound Treatment. To pinpoint these observations to a molecular signaling event or specific downstream pathway, reverse phase protein array (RPPA) analysis was performed (Table 4).

CNC(=O)c1ccc(Nc2ncc(C(F)(F)F)c(NCc3nccnc3N(C)S(C)(=O)=O)n2)cc1 [Defactinib, defactinib, reference compound]
rel. Protein level, Merlin (1000nM): 99.3%
rel. Protein level, Mnk1 (1000nM): 97.5%
rel. Protein level, Myosin-11 (1000nM): 100.9%
rel. Protein level, Myosin-IIa_pS1943 (1000nM): 108.6%
rel. Protein level, Myt1 (1000nM): 94.5%
rel. Protein level, N-Cadherin (1000nM): 107.8%
rel. Protein level, N-Ras (1000nM): 93.7%
rel. Protein level, NAPSIN-A (1000nM): 99.4%
rel. Protein level, NDRG1_pT346 (1000nM): 103.5%
rel. Protein level, NDUFB4 (1000nM): 96.3%
rel. Protein level, NF-kB-p65_pS536 (1000nM): 105.0%
rel. Protein level, Notch1 (1000nM): 96.2%
rel. Protein level, Notch3 (1000nM): 105.9%
rel. Protein level, Oct-4 (1000nM): 100.5%
rel. Protein level, P-Cadherin (1000nM): 104.3%
rel. Protein level, PAI-1 (1000nM): 106.1%
rel. Protein level, PAICS (1000nM): 98.7%
rel. Protein level, PAK1 (1000nM): 107.0%
rel. Protein level, PAK4 (1000nM): 95.5%
rel. Protein level, PAR (1000nM): 135.9%
rel. Protein level, PARP (1000nM): 98.0%
rel. Protein level, PCNA (1000nM): 88.7%
rel. Protein level, PD-1 (1000nM): 107.0%
rel. Protein level, PD-L1 (1000nM): 92.6%
rel. Protein level, PDGFR-b (1000nM): 138.5%
rel. Protein level, PDHK1 (1000nM): 102.5%
rel. Protein level, PDK1 (1000nM): 99.8%
rel. Protein level, PDK1_pS241 (1000nM): 97.4%
rel. Protein level, PEA-15 (1000nM): 98.7%
rel. Protein level, PEA-15_pS116 (1000nM): 97.0%
rel. Protein level, PI3K-p85 (1000nM): 100.0%
rel. Protein level, PI3K-p110-a (1000nM): 103.7%
rel. Protein level, PI3K-p110-b (1000nM): 98.5%
rel. Protein level, PKA-a (1000nM): 99.6%
rel. Protein level, PKC-b-II_pS660 (1000nM): 98.6%
rel. Protein level, PKC-delta_pS664 (1000nM): 100.9%
rel. Protein level, PKCa (1000nM): 110.1%
rel. Protein level, PKM2 (1000nM): 106.2%
rel. Protein level, PLC-gamma2_pY759 (1000nM): 97.2%
rel. Protein level, PLK1 (1000nM): 82.1%
rel. Protein level, PMS2 (1000nM): 98.6%
rel. Protein level, PR (1000nM): 100.3%
rel. Protein level, PRAS40 (1000nM): 98.3%
rel. Protein level, PRAS40_pT246 (1000nM): 90.7%
rel. Protein level, PREX1 (1000nM): 105.2%
rel. Protein level, PTEN (1000nM): 108.6%
rel. Protein level, Paxillin (1000nM): 105.5%
rel. Protein level, Pdcd4 (1000nM): 117.5%
rel. Protein level, Porin (1000nM): 95.2%
rel. Protein level, RBM15 (1000nM): 103.9%
rel. Protein level, RIP (1000nM): 103.7%
rel. Protein level, RPA32 (1000nM): 96.8%
rel. Protein level, RPA32_pS4-S8 (1000nM): 93.9%
rel. Protein level, RSK (1000nM): 104.4%
rel. Protein level, Rab11 (1000nM): 101.7%
rel. Protein level, Rab25 (1000nM): 97.8%
rel. Protein level, Rad50 (1000nM): 104.7%
rel. Protein level, Rad51 (1000nM): 102.1%
rel. Protein level, Raptor (1000nM): 98.9%
rel. Protein level, Rb (1000nM): 93.9%
rel. Protein level, Rb_pS807_S811 (1000nM): 84.3%
rel. Protein level, Rheb (1000nM): 91.7%
rel. Protein level, Rictor (1000nM): 111.8%
rel. Protein level, Rictor_pT1135 (1000nM): 90.0%
rel. Protein level, S6 (1000nM): 102.7%
rel. Protein level, S6_pS235_S236 (1000nM): 50.9%
rel. Protein level, S6_pS240_S244 (1000nM): 49.1%
rel. Protein level, b-Actin (1000nM): 101.1%
rel. Protein level, b-Catenin (1000nM): 100.0%
rel. Protein level, b-Catenin_pT41_S45 (1000nM): 98.3%
rel. Protein level, c-Abl (1000nM): 109.1%
rel. Protein level, c-IAP2 (1000nM): 94.3%
rel. Protein level, c-Jun_pS73 (1000nM): 92.7%
rel. Protein level, c-Kit (1000nM): 101.5%
rel. Protein level, c-Met_pY1234_Y1235 (1000nM): 98.9%
rel. Protein level, c-Myc (1000nM): 95.9%
rel. Protein level, cdc2_pY15 (1000nM): 90.1%
rel. Protein level, cdc25C (1000nM): 98.2%
rel. Protein level, eEF2 (1000nM): 94.8%
rel. Protein level, eEF2K (1000nM): 116.4%
rel. Protein level, eIF4E (1000nM): 105.5%
rel. Protein level, eIF4E_pS209 (1000nM): 95.7%
rel. Protein level, eIF4G (1000nM): 95.8%
rel. Protein level, mTOR (1000nM): 92.1%
rel. Protein level, mTOR_pS2448 (1000nM): 88.3%
rel. Protein level, p21 (1000nM): 100.5%
rel. Protein level, p27-Kip-1 (1000nM): 96.7%
rel. Protein level, p27_pT198 (1000nM): 96.4%
rel. Protein level, p38-MAPK (1000nM): 94.3%
rel. Protein level, p38_pT180_Y182 (1000nM): 100.6%
rel. Protein level, p44-42-MAPK (1000nM): 108.2%
rel. Protein level, p53 (1000nM): 93.7%
rel. Protein level, p70-S6K1 (1000nM): 111.0%
rel. Protein level, p70-S6K_pT389 (1000nM): 95.5%
rel. Protein level, p90RSK_pT573 (1000nM): 98.9%
rel. Protein level [%], SCD (antibody SCD, 1000nM, n = 2): 98.9%
rel. Protein level [%], SDHA (antibody SDHA, 1000nM, n = 2): 103.8%
rel. Protein level [%], SF2 (antibody SF2, 1000nM, n = 2): 95.8%
rel. Protein level [%], SHP-2_pY542 (antibody SHP-2_pY542, 1000nM, n = 2): 97.2%
rel. Protein level [%], SLC1A5 (antibody SLC1A5, 1000nM, n = 2): 111.6%
rel. Protein level [%], SOD1- (antibody SOD1-, 1000nM, n = 2): 97.7%
rel. Protein level [%], SOD2 (antibody SOD2, 1000nM, n = 2): 106.0%
rel. Protein level [%], STING (antibody STING, 1000nM, n = 2): 135.4%
rel. Protein level [%], Shc_pY317 (antibody Shc_pY317, 1000nM, n = 2): 104.3%
rel. Protein level [%], Slfn11 (antibody Slfn11, 1000nM, n = 2): 95.9%
rel. Protein level [%], Smac (antibody Smac, 1000nM, n = 2): 99.9%
rel. Protein level [%], Smad1 (antibody Smad1, 1000nM, n = 2): 97.8%
rel. Protein level [%], Smad3 (antibody Smad3, 1000nM, n = 2): 102.3%
rel. Protein level [%], Smad4 (antibody Smad4, 1000nM, n = 2): 95.2%
rel. Protein level [%], Snail (antibody Snail, 1000nM, n = 2): 101.3%
rel. Protein level [%], Sox2 (antibody Sox2, 1000nM, n = 2): 100.5%
rel. Protein level [%], Src (antibody Src, 1000nM, n = 2): 103.9%
rel. Protein level [%], Src_pY419 (antibody Src_pY419, 1000nM, n = 2): 99.6%
rel. Protein level [%], Src_pY527 (antibody Src_pY527, 1000nM, n = 2): 93.7%
rel. Protein level [%], Stat3 (antibody Stat3, 1000nM, n = 2): 92.9%
rel. Protein level [%], Stat3_pY705 (antibody Stat3_pY705, 1000nM, n = 2): 100.5%
rel. Protein level [%], Stat5a (antibody Stat5a, 1000nM, n = 2): 108.2%
rel. Protein level [%], Stathmin-1 (antibody Stathmin-1, 1000nM, n = 2): 99.3%
rel. Protein level [%], Syk (antibody Syk, 1000nM, n = 2): 95.8%
rel. Protein level [%], TAZ (antibody TAZ, 1000nM, n = 2): 100.5%
rel. Protein level [%], TFAM (antibody TFAM, 1000nM, n = 2): 101.4%
rel. Protein level [%], TFRC (antibody TFRC, 1000nM, n = 2): 96.3%
rel. Protein level [%], TIGAR (antibody TIGAR, 1000nM, n = 2): 100.5%
rel. Protein level [%], TRIM25 (antibody TRIM25, 1000nM, n = 2): 99.8%
rel. Protein level [%], TSC1 (antibody TSC1, 1000nM, n = 2): 102.5%
rel. Protein level [%], TTF1 (antibody TTF1, 1000nM, n = 2): 95.4%
rel. Protein level [%], TUFM (antibody TUFM, 1000nM, n = 2): 98.4%
rel. Protein level [%], TWIST (antibody TWIST, 1000nM, n = 2): 97.7%
rel. Protein level [%], Tau (antibody Tau, 1000nM, n = 2): 102.9%
rel. Protein level [%], Transglutaminase (antibody Transglutaminase, 1000nM, n = 2): 93.5%
rel. Protein level [%], Tuberin (antibody Tuberin, 1000nM, n = 2): 101.7%
rel. Protein level [%], Tuberin_pT1462 (antibody Tuberin_pT1462, 1000nM, n = 2): 93.6%
rel. Protein level [%], Tyro3 (antibody Tyro3, 1000nM, n = 2): 98.5%
rel. Protein level [%], U-Histone-H2B (antibody U-Histone-H2B, 1000nM, n = 2): 113.8%
rel. Protein level [%], UBAC1 (antibody UBAC1, 1000nM, n = 2): 99.7%
rel. Protein level [%], UGT1A (antibody UGT1A, 1000nM, n = 2): 98.6%
rel. Protein level [%], ULK1_pS757 (antibody ULK1_pS757, 1000nM, n = 2): 102.1%
rel. Protein level [%], VASP (antibody VASP, 1000nM, n = 2): 100.5%
rel. Protein level [%], VEGFR-2 (antibody VEGFR-2, 1000nM, n = 2): 93.5%
rel. Protein level [%], VHL-EPPK1 (antibody VHL-EPPK1, 1000nM, n = 2): 88.7%
rel. Protein level [%], WIPI1 (antibody WIPI1, 1000nM, n = 2): 102.3%
rel. Protein level [%], WIPI2 (antibody WIPI2, 1000nM, n = 2): 106.2%
rel. Protein level [%], Wee1 (antibody Wee1, 1000nM, n = 2): 95.3%
rel. Protein level [%], Wee1_pS642 (antibody Wee1_pS642, 1000nM, n = 2): 95.2%
rel. Protein level [%], XBP-1 (antibody XBP-1, 1000nM, n = 2): 89.5%
rel. Protein level [%], XPA (antibody XPA, 1000nM, n = 2): 83.5%
rel. Protein level [%], XPF (antibody XPF, 1000nM, n = 2): 100.5%
rel. Protein level [%], XRCC1 (antibody XRCC1, 1000nM, n = 2): 102.3%
rel. Protein level [%], YAP (antibody YAP, 1000nM, n = 2): 93.7%
rel. Protein level [%], YAP_pS127 (antibody YAP_pS127, 1000nM, n = 2): 103.1%
rel. Protein level [%], YB1_pS102 (antibody YB1_pS102, 1000nM, n = 2): 82.7%
rel. Protein level [%], ZAP-70 (antibody ZAP-70, 1000nM, n = 2): 95.1%
